Measurements reported in patent US12441688B1, “CCR5 inhibitor” (KING SAUD UNIVERSITY, priority 2025, dated 2025).

Target: T1, CCR5 receptor (Homo sapiens, UniProt P51681)
T1 construct: expressed in transfected cells; host or cells: Chinese hamster ovary (CHO) cells expressing the CCR5 receptor, kept under blasticidin S selection
Test: CCR5 binding inhibition assay in CHO cells expressing the CCR5 receptor
Text: All of the reagents and cell lines were obtained from commercial suppliers like Sigma Aldrich, Merck India Ltd., Himedia, and Rankem chemicals. Chinese Hamster Ovaries (CHO) cells expressing the CCR5 receptor were maintained in Ham's F-12 medium supplemented with 10% fetal calf serum, 50 units of penicillin per milliliter, and 50 micrograms of streptomycin per milliliter, in the presence of 5 micrograms of blasticidin S hydrochloride per milliliter. […] The cells were then washed. […] The inhibitory activity of the compounds on CCR5 binding was calculated using the formula: [1−(E−N)/(P−N)]×100%.
In this formula, N represents the absorbance at 450 nm in the negative control (the control antibody), while P corresponds to the absorbance in the positive control (the detecting antibody). E corresponds to the absorbance of the test compounds.
The data was analyzed using non-linear regression analysis to determine the IC50 values for both compounds.

T1 sequence (P51681 whole entry): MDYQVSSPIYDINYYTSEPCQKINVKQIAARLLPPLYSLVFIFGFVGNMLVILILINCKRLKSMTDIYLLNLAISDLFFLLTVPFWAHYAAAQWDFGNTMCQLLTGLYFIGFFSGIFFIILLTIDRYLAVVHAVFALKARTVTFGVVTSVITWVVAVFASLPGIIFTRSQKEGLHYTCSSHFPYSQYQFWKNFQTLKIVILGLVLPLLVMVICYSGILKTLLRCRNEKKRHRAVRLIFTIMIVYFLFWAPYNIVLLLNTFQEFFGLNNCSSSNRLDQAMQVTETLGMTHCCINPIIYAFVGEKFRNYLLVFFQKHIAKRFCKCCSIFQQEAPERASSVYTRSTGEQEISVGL

| Molecule | Percent inhibition against CCR5 (1 nM compound, listed as test compound, 0.001 µM) [%] | inhibition at 0.001 µM (1 nM compound, read-out: Percent inhibition against CCR5) [%] | Percent inhibition against CCR5 (10 nM compound, listed as test compound, 0.01 µM) [%] | inhibition at 0.01 µM (10 nM compound, read-out: Percent inhibition against CCR5) [%] | Percent inhibition against CCR5 (100 nM compound, 0.1 µM) [%] | inhibition at 0.1 µM (100 nM compound, read-out: Percent inhibition against CCR5) [%] | Percent inhibition against CCR5 (1000 nM compound, 1 µM) [%] | inhibition at 1 µM (1000 nM compound, read-out: Percent inhibition against CCR5) [%] | Percent inhibition against CCR5 (2000 nM compound, listed as test compound, 2 µM) [%] | inhibition at 2 µM (2000 nM compound, read-out: Percent inhibition against CCR5) [%] | IC50 (non-linear regression) [nM] | Percent inhibition against CCR5 (1 nM compound) [%] | Percent inhibition against CCR5 (10 nM compound) [%] | Percent inhibition against CCR5 (100 nM compound) [%] | Percent inhibition against CCR5 (1000 nM compound) [%] | Percent inhibition against CCR5 (2000 nM compound) [%] |
| --- | --- | --- | --- | --- | --- | --- | --- | --- | --- | --- | --- | --- | --- | --- | --- | --- |
| Cc1n[nH]c(C(C)C)c1C(=O)N1CCCN(Cc2ccc(Oc3ccc(C#N)cc3)cc2)CC1 [Novel Compound, 4-(4-((4-(5-isopropyl-3-methyl-1H-pyrazole-4-carbonyl)-1,4-diazepan-1-yl)methyl)phenoxy)benzonitrile] | 24.5 | ≥ 24.5 | 39.8 | ≥ 39.8 | 59.1 ± 3.12 | ≥ 59.1 | 78.2 ± 4.75 | ≥ 78.2 | 91.3 | ≥ 91.3 | 2.62 | – | – | – | – | – |
| Maraviroc [reference compound] | – | – | – | – | – | – | – | – | – | – | – | 20.0 ± 1.93 | 28.5 ± 2.40 | 55.1 ± 2.81 | 68.2 ± 2.97 | 85.3 |
